target: RAC-alpha serine/threonine-protein kinase (Homo sapiens, UniProt P31749); assay: off-target activity on human AKT1 kinase – biochemical, 57K library, IC50, selectivity assay for PKD inhibitor project, dose response (AID 1378)
Sequence (P31749 whole entry): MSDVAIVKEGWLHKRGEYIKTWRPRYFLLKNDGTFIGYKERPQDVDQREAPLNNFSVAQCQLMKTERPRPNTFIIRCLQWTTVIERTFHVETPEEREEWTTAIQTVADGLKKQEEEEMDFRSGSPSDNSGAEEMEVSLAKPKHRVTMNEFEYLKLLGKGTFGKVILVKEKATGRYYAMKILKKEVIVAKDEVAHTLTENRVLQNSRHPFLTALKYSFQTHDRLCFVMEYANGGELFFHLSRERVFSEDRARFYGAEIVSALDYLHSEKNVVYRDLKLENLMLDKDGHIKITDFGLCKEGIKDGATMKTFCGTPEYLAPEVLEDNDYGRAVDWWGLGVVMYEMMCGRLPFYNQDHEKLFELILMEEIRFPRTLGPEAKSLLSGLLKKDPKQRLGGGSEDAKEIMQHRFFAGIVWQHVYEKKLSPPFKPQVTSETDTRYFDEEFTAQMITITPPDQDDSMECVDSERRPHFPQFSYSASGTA

IC50, > 100 µM:
Cc1cc(NC(=O)CCC(=O)N(Cc2ccco2)C(C(=O)NCC2CCCO2)c2ccncc2)no1 (stereo not drawn) [N'-(furan-2-ylmethyl)-N-(5-methyl-1,2-oxazol-3-yl)-N'-[2-oxidanylidene-2-(oxolan-2-ylmethylamino)-1-pyridin-4-yl-ethyl]butanediamide]
CSc1ccccc1C(=O)NCc1ccc(F)cc1
O=[N+]([O-])c1ccc(Nc2c3ccccc3nc3ccccc23)cc1 [MLS000723809]
O=C(O)c1cc(C(=O)C2CCCCC2)c[nH]1 [4-(cyclohexylcarbonyl)-1H-pyrrole-2-carboxylic acid]
O=C1CSCN1c1cc(Cl)ccc1Cl [3-(2,5-dichlorophenyl)-1,3-thiazolan-4-one]
COc1ccc(CNC(=O)C2Cc3ccccc3CN2C(=O)c2ccco2)cc1 (stereo not drawn) [SMR000343177]
O=C(NNC1=Nc2cccc3cccc1c23)c1ccc(Br)cc1 [SMR000260645]
Cc1c(C#N)c(N)nc(Cl)c1C#N [2-amino-6-chloro-4-methyl-3,5-pyridinedicarbonitrile]
CC(N=Nc1ncc(Cl)cc1Cl)c1ccccn1 (stereo not drawn) [3,5-dichloro-N-(1-pyridin-2-ylethylideneamino)pyridin-2-amine]
Cn1cccc1C(=O)NC(=O)COC(=O)c1cc(S(=O)(=O)N2CCCCC2)ccc1Cl [[2-[(1-methylpyrrol-2-yl)carbonylamino]-2-oxidanylidene-ethyl] 2-chloranyl-5-piperidin-1-ylsulfonyl-benzoate]
CCCc1cc(=O)[nH]c(SCCCCN2C(=O)c3ccccc3C2=O)n1 [2-[4-[(4-oxidanylidene-6-propyl-1H-pyrimidin-2-yl)sulfanyl]butyl]isoindole-1,3-dione]
CC1Cc2ccccc2N1c1ncnc(N)c1[N+](=O)[O-] (stereo not drawn) [6-(2-methyl-2,3-dihydro-1H-indol-1-yl)-5-nitro-4-pyrimidinamine]
COC(=O)c1c(NC(=O)C2C3CCC(C3)C2C(=O)O)sc2c1CCCCC2 (stereo not drawn) [SMR000298221]
COc1ccc(Cn2c(=O)[nH]c3cc(C(=O)NC4CCCC4)ccc3c2=O)cc1 [MLS000730065]
CCOC(=O)c1sc(=NC(=O)CCS(=O)(=O)c2ccccc2)n(C)c1C [2-[3-(benzenesulfonyl)-1-oxopropyl]imino-3,4-dimethyl-5-thiazolecarboxylic acid ethyl ester]
O=C(Nc1ccccc1C(=O)N1CCCC1)C1COc2ccccc2O1 (stereo not drawn) [SMR000287780]
O=C(CSc1ccncc1)Nc1ccc2ccccc2c1 [N-naphthalen-2-yl-2-pyridin-4-ylsulfanylacetamide]
O=C(CSc1ccc2nnc(-c3cccnc3)n2n1)c1ccccc1 [1-phenyl-2-[[3-(3-pyridinyl)-[1,2,4]triazolo[4,3-b]pyridazin-6-yl]thio]ethanone]

From BindingDB's records for doi:10.7270/Q2JM282R (University of Pittsburgh, 2008)
